Target: T1, intracellular domain of human Tie2 (GST fusion protein) (Homo sapiens, UniProt Q02763)
T1 construct: intracellular domain of human Tie2 (amino acids 776-1124); made in house; host or cells: Baculovirus-infected insect cells (Hi5)
Assay: Tie2 kinase assay (Tie2-TR-FRET)
Assay type: biochemical
Details: ATP concentration 1 mM, in some cases means of several independent determinations
Procedure: The Tie2-inhibitory activity of the substances according to the invention was determined with the aid of one of the Tie2-TR-FRET assays described in the sections below at an ATP concentration of 1 mM (TR-FRET=Time-Resolved Fluorescence Resonance Energy Transfer):
The enzyme used was a recombinant fusion protein of glutathione S-transferase (GST) and the intracellular domain of human Tie2 (amino acids 776-1124) which was expressed in Baculovirus-infected insect cells (Hi5) and was purified by affinity chromatography on glutathione-Sepharose. Alternatively, it is also possible to use commercially available GST-His6-Tie2 fusion protein (ProQinase GmbH, Freiburg im Breisgau, Germany). The substrate used for the kinase reaction was the biotinylated peptide biotin-Ahx-[…] (C-terminus in amide form) which is commercially available (for example from Biosyntan, Berlin, Germany).
For the assay, 50 nl of a 100-fold concentrated solution of the respective test substance in DMSO were pipetted into a black low-volume 384-well microtitre plate (Greiner Bio-One, Frickenhausen, Germany) 2 μl of a solution of the Tie2 fusion protein in assay buffer [50 mM HEPES/HCl pH 7, 10 mM MgCl2, 2.5 mM MnCl2, 1 mM dithiothreitol, 0.01% (v/v) Nonidet P-40, 0.1% (w/v) bovine serum albumin (BSA), 1× Complete EDTA-free protease inhibitor mixture (Roche)] were added, and the mixture was incubated for 15 min to allow pre-binding of the substance to the enzyme prior to the kinase reaction. The kinase reaction was then started by adding 3 μl of a solution of adenosine triphosphate (ATP, 1.67 mM→final concentration in 5 μl assay volume=1 mM) and substrate (1.67 μM→final concentration in 5 μl assay volume=1 μM) in assay buffer, and the resulting mixture was incubated for a reaction time of 60 min at 22° C. The concentration of the Tie2 fusion protein was adapted to the respective activity of the enzyme and adjusted such that the assay was carried out in the linear range. Typical concentrations were in the range of 30 ng/ml.
The reaction was stopped by addition of 5 μl of a solution of TR-FRET detection reagents [200 nM streptavidin-XL665 and 2 nM PT66-Eu chelate, a europium chelate-labelled anti-phosphotyrosine antibody (Perkin-Elmer); alternatively, it is also possible to use PT66-Tb cryptate (Cisbio Bioassays, Codolet, France)] in aqueous EDTA solution[90 mM EDTA, 0.28% (w/v) bovine serum albumin (BSA) in 50 mM HEPES pH 7.5]. The resulting mixture was incubated at 22° C. for 1 h to allow formation of the complex of the biotinylated phosphorylated substrate and the detection reagents. The amount of phosphorylated substrate was then determined by measuring the resonance energy transfer from PT66-Eu chelate to streptavidin-XL665. To this end, the fluorescence emissions at 620 nm and 665 nm after excitation at 350 nm were measured in a TR-FRET measuring instrument (for example Viewlux, Perkin-Elmer). The ratio of the emissions at 665 nm and at 620 nm was taken as a measure of the amount of phosphorylated substrate.
Usually, the test substance in question was tested on the same microtitre plate at […] different concentrations in the range from 20 μM to 0.073 nM (for example at 20 μM, 5.7 μM, 1.6 μM, 0.47 μM, 0.13 μM, 38 nM, 11 nM, 3.1 nM, 0.89 nM, 0.25 nM and 0.073 nM) in duplicate for each concentration. The dilution series were prepared prior to the assay at the stage of the 100-fold concentrated solution by serial dilution (the exact concentrations may vary depending on the pipettors used in each case). IC50 values were calculated using a 4-parameter fit, with the aid of inhouse software.
Table 1 below lists the IC50 values from this assay for individual working examples (in some cases as means of several independent individual determinations): […]

T1 sequence (Q02763 776-1124): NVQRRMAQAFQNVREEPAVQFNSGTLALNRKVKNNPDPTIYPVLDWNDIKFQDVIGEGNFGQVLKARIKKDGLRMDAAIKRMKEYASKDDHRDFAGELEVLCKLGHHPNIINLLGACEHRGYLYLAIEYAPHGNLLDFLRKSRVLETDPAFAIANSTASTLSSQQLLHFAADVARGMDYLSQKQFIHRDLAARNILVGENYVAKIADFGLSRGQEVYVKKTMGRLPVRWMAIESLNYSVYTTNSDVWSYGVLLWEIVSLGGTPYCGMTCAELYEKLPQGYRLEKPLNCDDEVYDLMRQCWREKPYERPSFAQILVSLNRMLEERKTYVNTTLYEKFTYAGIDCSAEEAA

Point of comparison: `COc1ccc(NC(=O)c2cc(Br)cc(S(F)(F)(F)(F)F)c2)cc1-n1ccn2nc(-c3cccnc3)cc12` [Example 98, 3-Bromo-N-{4-methoxy-3-[6-(pyridin-3-yl)-1H-imidazo[1,2-b]pyrazol-1-yl]phenyl}-5-(pentafluoro-λ^6-sulphanyl)benzamide], IC50 595 nM. Against it:
- Cc1c(F)cc(NC(=O)c2cc(C#N)cc(S(F)(F)(F)(F)F)c2)cc1-n1ccn2nc(-c3cccnc3)cc12 [Example 105, 3-Cyano-N-{3-fluoro-4-methyl-5-[6-(pyridin-3-yl)-1H-imidazo[1,2-b]pyrazol-1-yl]phenyl}-5-(pentafluoro-λ^6-sulphanyl)benzamide] — 15-fold lower, 39 nM
- Cc1ccc(NC(=O)c2cc(C#N)cc(C(F)(F)F)c2)cc1-n1ccn2nc(-c3cccnc3)cc12 [Example 44, 3-Cyano-N-{4-methyl-3-[6-(pyridin-3-yl)-1H-imidazo[1,2-b]pyrazol-1-yl]phenyl}-5-(trifluoromethyl)benzamide] — 4.6-fold lower, 130 nM
- Cc1ccc(NC(=O)c2cccc(-n3cccn3)c2)cc1-n1ccn2nc(-c3cccnc3)cc12 [Example 55, N-{4-Methyl-3-[6-(pyridin-3-yl)-1H-imidazo[1,2-b]pyrazol-1-yl]phenyl}-3-(1H-pyrazol-1-yl)-benzamide] — 2.2-fold lower, 275 nM
- Cc1ccc(NC(=O)c2cc(N3CCN(C)CC3)cc(S(F)(F)(F)(F)F)c2)cc1-n1cc(C)n2nc(-c3cn[nH]c3)cc12 [Example 11, N-{4-Methyl-3-[3-methyl-6-(1H-pyrazol-4-yl)-1H-imidazo[1,2-b]pyrazol-1-yl]phenyl}-3-(4-methylpiperazin-1-yl)-5-(pentafluoro-λ^6-sulphanyl)benzamide] — 2000-fold lower, 0.3 nM
- Cc1ccc(NC(=O)c2cc(C#N)cc(OC(F)(F)F)c2)cc1-n1ccn2nc(-c3cccnc3)cc12 [Example 38, 3-Cyano-N-{4-methyl-3-[6-(pyridin-3-yl)-1H-imidazo[1,2-b]pyrazol-1-yl]phenyl}-5-(trifluoromethoxy)benzamide] — 40-fold lower, 15 nM
- Cc1ccc(NC(=O)c2cc(N3CCOCC3)cc(S(F)(F)(F)(F)F)c2)cc1-n1ccn2nc(-c3cccnc3)cc12 [Example 19, N-{4-Methyl-3-[6-(pyridin-3-yl)-1H-imidazo[1,2-b]pyrazol-1-yl]phenyl}-3-(morpholin-4-yl)-5-(pentafluoro-λ^6-sulphanyl)benzamide] — 660-fold lower, 0.9 nM
- Cc1ccc(NC(=O)c2ccc(Cl)c(N3CCCCC3)c2)cc1-n1ccn2nc(-c3cccnc3)cc12 [Example 58, 4-Chloro-N-{4-methyl-3-[6-(pyridin-3-yl)-1H-imidazo[1,2-b]pyrazol-1-yl]phenyl}-3-(piperidin-1-yl)benzamide] — 1.8-fold lower, 330 nM
- Cc1cc(C)c(-n2ccn3nc(-c4cccnc4)cc23)cc1NC(=O)c1cccc(OC(F)(F)F)c1 [Example 127, N-{2,4-Dimethyl-5-[6-(pyridin-3-yl)-1H-imidazo[1,2-b]pyrazol-1-yl]phenyl}-3-(trifluoromethoxy)benzamide] — 420-fold lower, 1.4 nM
- Cc1ccc(NC(=O)c2cc(-n3ccnc3C)cc(C(C)(C)C)c2)cc1-n1ccn2nc(-c3cccnc3)cc12 [Example 47, 3-tert-Butyl-5-(2-methyl-1H-imidazol-1-yl)-N-{4-methyl-3-[6-(pyridin-3-yl)-1H-imidazo[1,2-b]-pyrazol-1-yl]phenyl}benzamide] — 2000-fold lower, 0.3 nM
- COc1cc(C(=O)Nc2ccc(C)c(-n3ccn4nc(-c5cccnc5)cc34)c2)cc(S(F)(F)(F)(F)F)c1 [Example 21, 3-Methoxy-N-{4-methyl-3-[6-(pyridin-3-yl)-1H-imidazo[1,2-b]pyrazol-1-yl]phenyl}-5-(pentafluoro-λ^6-sulphanyl)benzamide] — 280-fold lower, 2.1 nM
- Cc1ccc(NC(=O)c2cc(N3CCNCC3)cc(S(F)(F)(F)(F)F)c2)cc1-n1cc(C)n2nc(-c3cn[nH]c3)cc12 [Example 10, N-{4-Methyl-3-[3-methyl-6-(1H-pyrazol-4-yl)-1H-imidazo[1,2-b]pyrazol-1-yl]phenyl}-3-(pentafluoro-λ^6-sulphanyl)-5-(piperazin-1-yl)benzamide] — 2000-fold lower, 0.3 nM
- Cc1cc(C)c(-n2ccn3nc(-c4cccnc4)cc23)cc1NC(=O)c1cccc(OCCO)c1 [Example 136, N-{2,4-Dimethyl-5-[6-(pyridin-3-yl)-1H-imidazo[1,2-b]pyrazol-1-yl]phenyl}-3-(2-hydroxyethoxy)benzamide] — within 1.5-fold, 687 nM
- Cc1ccc(NC(=O)c2cc(C#N)cc(S(F)(F)(F)(F)F)c2)c(O)c1-n1ccn2nc(-c3cccnc3)cc12 [Example 156, 3-Cyano-N-{2-hydroxy-4-methyl-3-[6-(pyridin-3-yl)-1H-imidazo[1,2-b]pyrazol-1-yl]phenyl}-5-(pentafluoro-λ^6-sulphanyl)benzamide] — 100-fold lower, 5.9 nM
- Cc1cc(C)c(-n2ccn3nc(-c4cccnc4)cc23)cc1NC(=O)c1cc(Br)cc(S(F)(F)(F)(F)F)c1 [Example 109, 3-Bromo-N-{2,4-dimethyl-5-[6-(pyridin-3-yl)-1H-imidazo[1,2-b]pyrazol-1-yl]phenyl}-5-(pentafluoro-λ^6-sulphanyl)benzamide] — 1200-fold lower, 0.5 nM
- Cc1cc(C)c(-n2ccn3nc(-c4cncnc4)cc23)cc1NC(=O)c1cccc(S(F)(F)(F)(F)F)c1 [Example 164, N-{2,4-Dimethyl-5-[6-(pyrimidin-5-yl)-1H-imidazo[1,2-b]pyrazol-1-yl]phenyl}-3-(pentafluoro-λ^6-sulphanyl)benzamide] — 1500-fold lower, 0.4 nM
- Cc1ccc(NC(=O)c2cc(N3CCN(C)CC3)cc(C(F)(F)F)c2)cc1-n1ccn2nc(-c3cccnc3)cc12 [Example 41, 3-(4-Methylpiperazin-1-yl)-N-{4-methyl-3-[6-(pyridin-3-yl)-1H-imidazo[1,2-b]pyrazol-1-yl]-phenyl}-5-(trifluoromethyl)benzamide] — 17-fold lower, 35 nM
- O=C(Nc1ccc(Cl)c(-n2ccn3nc(-c4cccnc4)cc23)c1)c1cccc(S(F)(F)(F)(F)F)c1 [Example 96, N-{4-Chloro-3-[6-(pyridin-3-yl)-1H-imidazo[1,2-b]pyrazol-1-yl]phenyl}-3-(pentafluoro-λ^6-sulphanyl)benzamide] — 13-fold lower, 47 nM
- Cc1ccc(NC(=O)c2cc(CO)cc(S(F)(F)(F)(F)F)c2)cc1-n1ccn2nc(-c3cccnc3)cc12 [Example 31, 3-(Hydroxymethyl)-N-{4-methyl-3-[6-(pyridin-3-yl)-1H-imidazo[1,2-b]pyrazol-1-yl]phenyl}-5-(pentafluoro-λ^6-sulphanyl)benzamide] — 540-fold lower, 1.1 nM
- Cc1ccc(NC(=O)c2ccnc(N3CCOCC3)c2)cc1-n1ccn2nc(-c3cccnc3)cc12 [Example 69, N-{4-Methyl-3-[6-(pyridin-3-yl)-1H-imidazo[1,2-b]pyrazol-1-yl]phenyl}-2-(morpholin-4-yl)-pyridine-4-carboxamide] — within 1.5-fold, 580 nM
- Cc1cc(C)c(-n2ccn3nc(-c4cncnc4)cc23)cc1NC(=O)c1cc(C#N)cc(S(F)(F)(F)(F)F)c1 [Example 166, 3-Cyano-N-{2,4-dimethyl-5-[6-(pyrimidin-5-yl)-1H-imidazo[1,2-b]pyrazol-1-yl]phenyl}-5-(pentafluoro-λ^6-sulphanyl)benzamide] — 2000-fold lower, 0.3 nM
- Cc1cc(C)c(-n2ccn3nc(-c4cccnc4)cc23)cc1NC(=O)c1cc(CC(=O)O)cc(S(F)(F)(F)(F)F)c1 [Example 151, [3-({2,4-Dimethyl-5-[6-(pyridin-3-yl)-1H-imidazo[1,2-b]pyrazol-1-yl]phenyl}carbamoyl)-5-(pentafluoro-λ^6-sulphanyl)phenyl]acetic acid] — 98-fold lower, 6.1 nM
- Cc1ccc(-n2ccn3nc(-c4cccnc4)cc23)cc1NC(=O)c1cc(Br)cc(C(C)(C)C)c1 [Example 78] — 5.2-fold lower, 115 nM

Reference: patent US20150005288A1, “SUBSTITUTED PHENYLIMIDAZOPYRAZOLES AND USE THEREOF” (Bayer Intellectual Property GmbH, priority 2012, published 2015)
